This is an account of results in the NIST ThermoML archive (doi:10.1016/j.jct.2018.10.030).

± gives the expanded uncertainty stated by the source.

The conditions of the series: 298.15 K; 101.33 kPa; Liquid; Vibrating tube method.
For `CCCC(=O)O` [butanoic acid], the mass density came to 953.05 ± 0.21 kg/m3.
For `C[S+](C)[O-]` [dimethyl sulfoxide] the value was 1095.34 ± 0.21 kg/m3.
In the case of `CCCCCCC=O` [heptanal], the mass density is 816.83 ± 3.2 kg/m3.
As for `CCCCCC=O` [hexanal], the figure is 830.01 ± 1 kg/m3; as for `CCCCCC(=O)O` [hexanoic acid], 923.07 ± 0.21 kg/m3.
As for `CCCCCCCC(=O)O` [octanoic acid], the mass density was found to be 906 ± 0.32 kg/m3.
As for `CCCCC(=O)O` [pentanoic acid], the figure is 934.75 ± 0.21 kg/m3; as for `CC(C)O` [propan-2-ol], 780.69 ± 0.23 kg/m3.
